row,SMILES,melting point [°C]
1,CC(=O)CN1CCC(CCN2CCN(c3cc(Cl)ccc3F)CC2)CC1.Cl.Cl,270
2,"CCOCC(=O)N[C@H]1CC[C@H](CCN2CCN(c3cc(C(F)(F)F)cc(C(F)(F)F)c3)CC2)CC1 [Example 108, N-(4-{2-[4-(3,5-Bistrifluoro-methylphenyl)piperazin-1-yl]ethyl}cyclohexyl)-2-ethoxyacetamide]",135
3,CC(=O)CN1CCC(CCN2CCN(c3cccc4c3OCCCO4)CC2)CC1.Cl.Cl,280
4,"CC(=O)CN1CCC(CCN2CCN(c3cccc(CO)c3)CC2)CC1 [Example 640, 1-(4-{2-[4-(3-Hydroxymethylphenyl)piperazin-1-yl]ethyl}piperidin-1-yl)propan-2-one]",84
5,CC(=O)CN1CCC(CCN2CCN(c3cc(Cl)cc(C(F)(F)F)c3)CC2)CC1.Cl.Cl,289
6,CC(=O)CN1CCC(CCN2CCN(c3c(C)cccc3C)CC2)CC1.Cl.Cl,249
7,CC(=O)CN1CCC(CCN2CCN(c3cc(C)cc(Cl)c3)CC2)CC1.Cl.Cl,300
8,"CC(=O)CN1CCC(CCN2CCN(c3ccc4c(c3)CCCCC4)CC2)CC1 [Example 642, 1-(4-{2-[4-(6,7,8,9-Tetrahydro-5H-benzocyclohepten-2-yl)piperazin-1-yl]ethyl}piperidin-1-yl)propan-2-one]",98
9,CC(C)(C)OC(=O)N1CCC(CCN2CCN(c3cccc(C(F)(F)F)c3)CC2)CC1.Cl,188
10,CC(=O)CN1CCC(CCN2CCN(c3ccccc3C#N)CC2)CC1.Cl.Cl,290
11,"O=C(N[C@H]1CC[C@H](CCN2CCN(c3ccc(F)cc3F)CC2)CC1)C1=CCCCC1 [Example 71, Cyclohex-1-enecarboxylic acid (4-{2-[4-(2,4-difluorophenyl)-piperazin-1-yl]ethyl}-cyclohexyl)amide]",203
12,COCCNC(=O)C[C@H]1CC[C@H](CCN2CCN(c3cccc(C(F)(F)F)c3)CC2)CC1.Cl,143
13,"O=C(N[C@H]1CC[C@H](CCN2CCN(c3ccc(F)cc3F)CC2)CC1)C1=CCCCO1 [Example 565, 5,6-Dihydro-4H-pyran-2-carboxylic acid (4-{2-[4-(2,4-difluorophenyl)piperazin-1-yl]ethyl}cyclohexyl) amide]",160
14,CC(=O)CN1CCC(CCN2CCN(c3cccc(-c4ccccc4)c3)CC2)CC1.Cl.Cl,235
15,CC(=O)CN1CCC(CCN2CCN(c3ccccc3C(F)(F)F)CC2)CC1.Cl.Cl,290
16,CC(=O)CN1CCC(CCN2CCN(c3cccc(Cl)c3C#N)CC2)CC1.Cl.Cl,284
17,"CCOC(=O)CN1CCC(CCN2CCN(c3cccc(C)c3C)CC2)CC1 [Example 533, (4-{2-[4-(2,3-Dimethylphenyl)piperazin-1-yl]ethyl}piperidin-1-yl)acetic acid ethyl ester]",82
18,"O=C(N[C@H]1CC[C@H](CCN2CCN(c3cc(F)c(F)c(F)c3)CC2)CC1)C1CC=CC1 [Example 466, Cyclopent-3-enecarboxylic acid (4-{2-[4-(3,4,5-trifluorophenyl)piperazin-1-yl]ethyl}cyclohexyl) amide]",224
19,CCc1ccccc1N1CCN(CCC2CCN(CC(C)=O)CC2)CC1.Cl.Cl,291
20,Cl.N#CCCC(=O)N1CCC(CCN2CC=C(c3cc(C(F)(F)F)ccc3F)CC2)CC1,150
21,CC(=O)CN1CCC(CCN2CCN(c3cc(Cl)ccc3C)CC2)CC1.Cl.Cl,259
22,CC(=O)CN1CCC(CCN2CCN(c3cc(F)ccc3C)CC2)CC1.Cl.Cl,281
23,CC(=O)CN1CCC(CCN2CCN(c3ccc(Cl)c(Cl)c3F)CC2)CC1.Cl.Cl,230
24,"CNC(=O)C[C@H]1CC[C@H](CCN2CCN(c3ccccc3F)CC2)CC1 [Example 300, 2-(4-{2-[4-(2-Fluorophenyl)-piperazin-1-yl]ethyl}cyclohexyl)-N-methylacetamide]",165 to 166
25,"O=C(N[C@H]1CC[C@H](CCN2CCN(c3cc(F)ccc3F)CC2)CC1)C1=CCCC1 [Example 441, Cyclopent-1-enecarboxylic acid (4-{2-[4-(2,5-difluorophenyl)-piperazin-1-yl]ethyl}cyclohexyl) amide]",209
26,"O=C(N[C@H]1CC[C@H](CCN2CCN(c3ccccc3F)CC2)CC1)C1=CCCCC1 [Example 67, Cyclohex-1-enecarboxylic acid (4-{2-[4-(2-fluorophenyl)-piperazin-1-yl]ethyl}cyclohexyl)-amide]",209

# Second part, the compound after the results:
row,melting point [°C],SMILES
1,189,"N#CCC(=O)N[C@H]1CC[C@H](CCN2CCN(c3ccc(Cl)cc3Cl)CC2)CC1 [Example 709, 2-Cyano-N-(4-{2-[4-(2,4-dichlorophenyl)piperazin-1-yl]ethyl}cyclohexyl)acetamide]"
2,152,"COc1ccc(Cl)cc1N1CCN(CC[C@H]2CC[C@H](NC(=O)CCCC#N)CC2)CC1 [Example 415, N-(4-{2-[4-(5-Chloro-2-methoxyphenyl)piperazin-1-yl]ethyl}cyclohexyl)-4-cyanobutanamide]"
3,100,"CCOCC(=O)N[C@H]1CC[C@H](CCN2CCN(c3cccc(CC)c3)CC2)CC1 [Example 563, 2-Ethoxy-N-(4-{2-[4-(3-ethylphenyl)piperazin-1-yl]ethyl}cyclohexyl)acetamide]"
4,158,"CC(=O)CCCC(=O)N[C@H]1CC[C@H](CCN2CCN(c3cccc(C(F)(F)F)c3)CC2)CC1 [Example 202, 5-Oxo-hexanoic acid (4-{2-[4-(3-trifluoromethylphenyl)piperazin-1-yl]ethyl}cyclohexyl)amide]"
5,165,"N#Cc1cccc(N2CCN(CC[C@H]3CC[C@H](NC(=O)C4=COCC4)CC3)CC2)c1 [Example 524, 4,5-Dihydrofuran-3-carboxylic acid (4-{2-[4-(3-cyanophenyl)piperazin-1-yl]ethyl}cyclohexyl) amide]"
6,138,"CCOc1ccccc1N1CCN(CC[C@H]2CC[C@H](NC(=O)CC#N)CC2)CC1 [Example 243, 2-Cyano-N-(4-{2-[4-(2-ethoxyphenyl)piperazin-1-yl]ethyl}cyclohexyl)acetamide]"
7,147,N#CCC(=O)N[C@H]1CC[C@@H](CCN2CC=C(c3ccc(F)cc3)CC2)CC1
8,180,"N#CCCCC(=O)N[C@H]1CC[C@H](CCN2CCN(c3cc(F)c(F)c(F)c3F)CC2)CC1 [Example 98, 4-Cyano-N-(4-{2-[4-(2,3,4,5-tetrafluorophenyl)piperazin-1-yl]ethyl}cyclohexyl)butyramide]"
9,197,"N#CCC(=O)N[C@H]1CC[C@H](CCN2CCN(c3ccc(F)c(F)c3)CC2)CC1 [Example 325, 2-Cyano-N-(4-{2-[4-(3,4-difluorophenyl)piperazin-1-yl]ethyl}cyclohexyl)acetamide]"
10,102,N#CCCCC(=O)N[C@H]1CC[C@H](CCN2CC=C(c3cccc(C(F)(F)F)c3)CC2)CC1
11,175,"N#CCCCC(=O)N[C@H]1CC[C@H](CCN2CCN(c3cccc(F)c3C#N)CC2)CC1 [Example 522, 4-Cyano-N-(4-{2-[4-(2-cyano-3-fluorophenyl)piperazin-1-yl]ethyl}cyclohexyl)butanamide]"
12,159,"Cc1c(F)cccc1N1CCN(CC[C@H]2CC[C@H](NC(=O)CCCC#N)CC2)CC1 [Example 356, 4-Cyano-N-(4-{2-[4-(3-fluoro-2-methylphenyl)piperazin-1-yl]ethyl}cyclohexyl)butanamide]"
13,177,"N#CCCCC(=O)N[C@H]1CC[C@H](CCN2CCc3cc(C#N)ccc3C2)CC1 [Example 558, 4-Cyano-N-{4-[2-(6-cyano-3,4-dihydro-1H-isoquinolin-2-yl)ethyl]cyclohexyl}butanamide]"
14,217,"CC(=O)NCC(=O)N[C@H]1CC[C@H](CCN2CCN(c3ccccc3F)CC2)CC1 [Example 134, 2-Acetylamino-N-(4-{2-[4-(2-fluorophenyl)piperazin-1-yl]ethyl}cyclohexyl)acetamide]"
15,158 to 162,"N#CCCCC(=O)N[C@H]1CC[C@H](CCN2CCN(c3cccc(C(F)(F)F)c3F)CC2)CC1 [Example 172, 4-Cyano-N-(4-{2-[4-(2-fluoro-3-trifluoromethylphenyl)piperazin-1-yl]ethyl}cyclohexyl)butanamide]"
16,150,"O=C(COc1ccccc1)N[C@H]1CC[C@H](CCN2CCN(c3cccc(F)c3)CC2)CC1 [Example 396, N-(4-{2-[4-(3-Fluorophenyl)piperazin-1-yl]ethyl}cyclohexyl)-2-phenoxyacetamide]"
17,96,"CC(C)OCC(=O)N[C@H]1CC[C@H](CCN2CCN(c3ccccc3F)CC2)CC1 [Example 97, N-(4-{2-[4-(2-Fluorophenyl)-piperazin-1-yl]ethyl}cyclohexyl)-2-isopropoxyacetamide]"
18,153,N#CCCCC(=O)N[C@H]1CC[C@H](CCN2CC=C(c3cc(C(F)(F)F)ccc3F)CC2)CC1
19,156,"N#CCC(=O)N[C@H]1CC[C@@H](CCN2CCN(c3ccc(C(F)(F)F)cc3)CC2)CC1 [Example 613, 2-Cyano-N-(4-{2-[4-(4-trifluoromethylphenyl)piperazin-1-yl]ethyl}cyclohexyl)acetamide]"
20,175,"N#CCC(=O)N[C@H]1CC[C@H](CCN2CCN(c3cccc4c3CCC4)CC2)CC1 [Example 456, 2-Cyano-N-{4-[2-(4-indan-4-ylpiperazin-1-yl)ethyl]cyclohexyl}acetamide]"
21,178 to 180,"COc1ccc(C)c(N2CCN(CC[C@H]3CC[C@H](NC(=O)CC#N)CC3)CC2)c1 [Example 198, 2-Cyano-N-(4-{2-[4-(5-methoxy-2-methylphenyl)piperazin-1-yl]ethyl}cyclohexyl)acetamide]"
22,194,"N#CCC(=O)N[C@H]1CC[C@H](CCN2CCN(c3cccc(C(F)(F)F)c3F)CC2)CC1 [Example 158, 2-Cyano-N-(4-{2-[4-(2-fluoro-3-trifluoromethylphenyl)piperazin-1-yl]ethyl}cyclohexyl)acetamide]"
23,132,"CCCc1cccc(N2CCN(CC[C@H]3CC[C@H](NC(=O)CC#N)CC3)CC2)c1 [Example 271, 2-Cyano-N-(4-{2-[4-(3-propylphenyl)piperazin-1-yl]ethyl}cyclohexyl)acetamide]"

# Source: patent publication US8802678B2, “Carbonylated (aza) cyclohexanes as dopamine D3 receptor ligands” (Bioprojet, priority 2006, dated 2014)
